# Results: ChEMBL document CHEMBL1671627, “Increasing trends in antimicrobial resistance among clinically important anaerobes and Bacteroides fragilis isolates causing nosocomial infections: emerging resistance to carbapenems” (2008)
# How the values were obtained:
# Clostridium septicum = assay: Antibacterial activity against beta-lactamase producing Clostridium septicum by CLSI agar dilution method; assay type: functional
# Veillonella parvula = assay: Antibacterial activity against Veillonella parvula by CLSI agar dilution method; assay type: functional
# Fusobacterium nucleatum [1] = assay: Antibacterial activity against Fusobacterium nucleatum by CLSI agar dilution method; assay type: functional
# Bacteroides caccae [2] = assay: Antibacterial activity against beta-lactamase producing Bacteroides caccae by CLSI agar dilution method; assay type: functional
# Prevotella bivia [3] = assay: Antibacterial activity against Prevotella bivia by CLSI agar dilution method; assay type: functional
# Fusobacterium mortiferum [4] = assay: Antibacterial activity against Fusobacterium mortiferum by CLSI agar dilution method; assay type: functional
# [5] = test system: Peptoniphilus asaccharolyticus; assay: Antibacterial activity against beta-lactamase producing Peptoniphilus asaccharolyticus by CLSI agar dilution method; assay type: functional
# [6] = test system: Fusobacterium necrophorum; assay: Antibacterial activity against Fusobacterium necrophorum by CLSI agar dilution method; assay type: functional
# [7] = test system: Prevotella melaninogenica; assay: Antibacterial activity against Prevotella melaninogenica by CLSI agar dilution method; assay type: functional
# Prevotella intermedia [8] = assay: Antibacterial activity against Prevotella intermedia by CLSI agar dilution method; assay type: functional
# [9] = test system: Peptostreptococcus anaerobius; assay: Antibacterial activity against beta-lactamase producing Peptostreptococcus anaerobius by CLSI agar dilution method; assay type: functional
# [10] = test system: Bacteroides thetaiotaomicron; assay: Antibacterial activity against beta-lactamase producing Bacteroides thetaiotaomicron by CLSI agar dilution method; assay type: functional
# Clostridium perfringens = assay: microbe, parasite or virus in culture; assay type: functional
# Finegoldia magna = assay: Antibacterial activity against beta-lactamase producing Finegoldia magna by CLSI agar dilution method; assay type: functional
# Prevotella buccae [11] = assay: Antibacterial activity against Prevotella buccae by CLSI agar dilution method; assay type: functional; details: Segatella buccae
# Bacteroides uniformis [12] = assay: Antibacterial activity against beta-lactamase producing Bacteroides uniformis by CLSI agar dilution method; assay type: functional
# Bacteroides fragilis [13] = assay: Antibacterial activity against Bacteroides fragilis by CLSI agar dilution method; assay type: functional
# Parvimonas micra = assay: Antibacterial activity against beta-lactamase producing Micromonas micros by CLSI agar dilution method; assay type: functional
# Fusobacterium varium [14] = assay: Antibacterial activity against Fusobacterium varium by CLSI agar dilution method; assay type: functional
# [15] = test system: Clostridium paraputrificum; assay: Antibacterial activity against beta-lactamase producing Clostridium paraputrificum by CLSI agar dilution method; assay type: functional
# Phocaeicola vulgatus [16] = assay: Antibacterial activity against beta-lactamase producing Bacteroides vulgatus by CLSI agar dilution method; assay type: functional
# Clostridium tertium = assay: Antibacterial activity against beta-lactamase producing Clostridium tertium by CLSI agar dilution method; assay type: functional
# Phocaeicola vulgatus [17] = assay: Antibacterial activity against beta-lactamase producing Bacteroides vulgatus assessed as susceptible isolates by CLSI agar dilution method; assay type: functional
# Prevotella buccae [18] = assay: Antibacterial activity against Prevotella buccae assessed as resistant isolates by CLSI agar dilution method; assay type: functional, Segatella buccae
# Bacteroides uniformis [19] = assay: Antibacterial activity against beta-lactamase producing Bacteroides uniformis assessed as susceptible isolates by CLSI agar dilution method; assay type: functional
# Fusobacterium nucleatum [20] = assay: Antibacterial activity against Fusobacterium nucleatum assessed as resistant isolates by CLSI agar dilution method; assay type: functional
# [21] = test system: Bacteroides thetaiotaomicron; assay: Antibacterial activity against beta-lactamase producing Bacteroides thetaiotaomicron assessed as resistant isolates by CLSI agar dilution method; assay type: functional
# Prevotella bivia [22] = assay: Antibacterial activity against Prevotella bivia assessed as resistant isolates by CLSI agar dilution method; assay type: functional
# Bacteroides fragilis [23] = assay: Antibacterial activity against Bacteroides fragilis assessed as resistant isolates by CLSI agar dilution method; assay type: functional
# [24] = test system: Prevotella melaninogenica; assay: Antibacterial activity against Prevotella melaninogenica assessed as resistant isolates by CLSI agar dilution method; assay type: functional
# Fusobacterium varium [25] = assay: Antibacterial activity against Fusobacterium varium assessed as resistant isolates by CLSI agar dilution method; assay type: functional
# [26] = test system: Fusobacterium necrophorum; assay: Antibacterial activity against Fusobacterium necrophorum assessed as resistant isolates by CLSI agar dilution method; assay type: functional
# [27] = test system: Bacteroides thetaiotaomicron; assay: Antibacterial activity against beta-lactamase producing Bacteroides thetaiotaomicron assessed as susceptible isolates by CLSI agar dilution method; assay type: functional
# Prevotella intermedia [28] = assay: Antibacterial activity against Prevotella intermedia assessed as resistant isolates by CLSI agar dilution method; assay type: functional
# Bacteroides fragilis [29] = assay: Antibacterial activity against Bacteroides fragilis assessed as susceptible isolates by CLSI agar dilution method; assay type: functional
# [30] = test system: Fusobacterium necrophorum; assay: Antibacterial activity against Fusobacterium necrophorum assessed as susceptible isolates by CLSI agar dilution method; assay type: functional
# Fusobacterium varium [31] = assay: Antibacterial activity against Fusobacterium varium assessed as susceptible isolates by CLSI agar dilution method; assay type: functional
# Fusobacterium mortiferum [32] = assay: Antibacterial activity against Fusobacterium mortiferum assessed as susceptible isolates by CLSI agar dilution method; assay type: functional
# Bacteroides uniformis [33] = assay: Antibacterial activity against beta-lactamase producing Bacteroides uniformis assessed as resistant isolates by CLSI agar dilution method; assay type: functional
# [34] = test system: Prevotella melaninogenica; assay: Antibacterial activity against Prevotella melaninogenica assessed as susceptible isolates by CLSI agar dilution method; assay type: functional
# Bacteroides caccae [35] = assay: Antibacterial activity against beta-lactamase producing Bacteroides caccae assessed as resistant isolates by CLSI agar dilution method; assay type: functional
# Prevotella bivia [36] = assay: Antibacterial activity against Prevotella bivia assessed as susceptible isolates by CLSI agar dilution method; assay type: functional
# Prevotella buccae [37] = assay: Antibacterial activity against Prevotella buccae assessed as susceptible isolates by CLSI agar dilution method; assay type: functional, Segatella buccae
# Fusobacterium mortiferum [38] = assay: Antibacterial activity against Fusobacterium mortiferum assessed as resistant isolates by CLSI agar dilution method; assay type: functional
# Phocaeicola vulgatus [39] = assay: Antibacterial activity against beta-lactamase producing Bacteroides vulgatus assessed as resistant isolates by CLSI agar dilution method; assay type: functional
# Fusobacterium nucleatum [40] = assay: Antibacterial activity against Fusobacterium nucleatum assessed as susceptible isolates by CLSI agar dilution method; assay type: functional
# Bacteroides caccae [41] = assay: Antibacterial activity against beta-lactamase producing Bacteroides caccae assessed as susceptible isolates by CLSI agar dilution method; assay type: functional
# Prevotella intermedia [42] = assay: Antibacterial activity against Prevotella intermedia assessed as susceptible isolates by CLSI agar dilution method; assay type: functional
compound,measurement,setting,value
C[C@H]1COc2c(N3CCN(C)CC3)c(F)cc3c(=O)c(C(=O)O)cn1c23.C[C@H]1COc2c(N3CCN(C)CC3)c(F)cc3c(=O)c(C(=O)O)cn1c23.O [LEVOFLOXACIN],MIC50,Clostridium septicum,0.5 µg/mL
same,MIC90,Clostridium septicum,4 µg/mL
same,MIC,Veillonella parvula,0.06 µg/mL
same,MIC50,Fusobacterium nucleatum [1],2 µg/mL
same,MIC90,Fusobacterium nucleatum [1],4 µg/mL
same,MIC50,Bacteroides caccae [2],2 µg/mL
same,MIC90,Bacteroides caccae [2],8 µg/mL
same,MIC50,Prevotella bivia [3],1 µg/mL
same,MIC90,Prevotella bivia [3],16 µg/mL
same,MIC50,Fusobacterium mortiferum [4],2 µg/mL
same,MIC90,Fusobacterium mortiferum [4],4 µg/mL
same,MIC50,[5],0.5 µg/mL
same,MIC90,[5],32 µg/mL
same,MIC50,[6],2 µg/mL
same,MIC90,[6],4 µg/mL
same,MIC50,[7],1 µg/mL
same,MIC90,[7],16 µg/mL
same,MIC50,Prevotella intermedia [8],1 µg/mL
same,MIC90,Prevotella intermedia [8],16 µg/mL
same,MIC50,[9],0.5 µg/mL
same,MIC90,[9],32 µg/mL
same,MIC50,[10],4 µg/mL
same,MIC90,[10],8 µg/mL
same,MIC90,Clostridium perfringens,4 µg/mL
same,MIC50,Finegoldia magna,0.5 µg/mL
same,MIC90,Finegoldia magna,32 µg/mL
same,MIC50,Prevotella buccae [11],1 µg/mL
same,MIC90,Prevotella buccae [11],16 µg/mL
same,MIC50,Bacteroides uniformis [12],2 µg/mL
same,MIC90,Bacteroides uniformis [12],8 µg/mL
same,MIC50,Bacteroides fragilis [13],2 µg/mL
same,MIC90,Bacteroides fragilis [13],8 µg/mL
same,MIC50,Parvimonas micra,0.5 µg/mL
same,MIC90,Parvimonas micra,32 µg/mL
same,MIC50,Fusobacterium varium [14],2 µg/mL
same,MIC90,Fusobacterium varium [14],4 µg/mL
same,MIC50,[15],0.5 µg/mL
same,MIC90,[15],4 µg/mL
same,MIC50,Phocaeicola vulgatus [16],2 µg/mL
same,MIC90,Phocaeicola vulgatus [16],8 µg/mL
same,MIC50,Clostridium tertium,0.5 µg/mL
same,MIC90,Clostridium tertium,4 µg/mL
CC1(C)S[C@@H]2[C@H](NC(=O)Cc3ccccc3)C(=O)N2[C@H]1C(=O)O [PENICILLIN G],MIC50,Clostridium septicum,0.25 µg/mL
same,MIC90,Clostridium septicum,4 µg/mL
same,Activity,Phocaeicola vulgatus [17],0%
same,Activity,Prevotella buccae [18],95%
same,MIC,Veillonella parvula,0.06 µg/mL
same,Activity,Bacteroides uniformis [19],0%
same,MIC50,Fusobacterium nucleatum [1],0.25 µg/mL
same,MIC90,Fusobacterium nucleatum [1],1 µg/mL
same,MIC50,Bacteroides caccae [2],> 128 µg/mL
same,MIC90,Bacteroides caccae [2],> 128 µg/mL
same,Activity,Fusobacterium nucleatum [20],11%
same,Activity,[21],100%
same,Activity,Prevotella bivia [22],95%
same,Activity,Bacteroides fragilis [23],100%
same,MIC50,Prevotella bivia [3],16 µg/mL
same,MIC90,Prevotella bivia [3],64 µg/mL
same,Activity,[24],95%
same,Activity,Fusobacterium varium [25],11%
same,MIC50,Fusobacterium mortiferum [4],0.25 µg/mL
same,MIC90,Fusobacterium mortiferum [4],1 µg/mL
same,Activity,[26],11%
same,MIC,[5],0.03 µg/mL
same,MIC50,[5],0.03 µg/mL
same,MIC90,[5],1 µg/mL
same,MIC50,[6],0.25 µg/mL
same,MIC90,[6],1 µg/mL
same,MIC50,[7],16 µg/mL
same,MIC90,[7],64 µg/mL
same,Activity,[27],0%
same,MIC50,Prevotella intermedia [8],16 µg/mL
same,MIC90,Prevotella intermedia [8],64 µg/mL
same,Activity,Prevotella intermedia [28],95%
same,Activity,Bacteroides fragilis [29],0%
same,Activity,[30],85%
same,Activity,Fusobacterium varium [31],85%
same,Activity,Fusobacterium mortiferum [32],85%
same,MIC,[9],0.03 µg/mL
same,MIC50,[9],0.03 µg/mL
same,MIC90,[9],1 µg/mL
same,Activity,Bacteroides uniformis [33],100%
same,MIC50,[10],16 µg/mL
same,MIC90,[10],> 128 µg/mL
same,MIC50,Clostridium perfringens,0.25 µg/mL
same,MIC90,Clostridium perfringens,4 µg/mL
same,MIC,Finegoldia magna,0.03 µg/mL
same,MIC50,Finegoldia magna,0.03 µg/mL
same,MIC90,Finegoldia magna,1 µg/mL
same,MIC50,Prevotella buccae [11],16 µg/mL
same,MIC90,Prevotella buccae [11],64 µg/mL
same,MIC50,Bacteroides uniformis [12],> 128 µg/mL
same,MIC90,Bacteroides uniformis [12],> 128 µg/mL
same,Activity,[34],6%
same,Activity,Bacteroides caccae [35],100%
same,MIC50,Bacteroides fragilis [13],16 µg/mL
same,MIC90,Bacteroides fragilis [13],> 128 µg/mL
same,MIC,Parvimonas micra,0.03 µg/mL
same,MIC50,Parvimonas micra,0.03 µg/mL
same,MIC90,Parvimonas micra,1 µg/mL
same,Activity,Prevotella bivia [36],6%
same,Activity,Prevotella buccae [37],6%
same,MIC50,Fusobacterium varium [14],0.25 µg/mL
same,MIC90,Fusobacterium varium [14],1 µg/mL
same,Activity,Fusobacterium mortiferum [38],11%
same,Activity,Phocaeicola vulgatus [39],100%
same,Activity,Fusobacterium nucleatum [40],85%
same,Activity,Bacteroides caccae [41],0%
same,MIC50,[15],0.25 µg/mL
same,MIC90,[15],4 µg/mL
same,MIC50,Phocaeicola vulgatus [16],> 128 µg/mL
same,MIC90,Phocaeicola vulgatus [16],> 128 µg/mL
same,MIC50,Clostridium tertium,0.25 µg/mL
same,MIC90,Clostridium tertium,4 µg/mL
same,Activity,Prevotella intermedia [42],6%
